In experiment [1] the test system is radish (Raphanus sativus). Particulars: spray. Here is the method: (§1) The herbicidal effect of formic acid was compared with that of acetic acid in a greenhouse study using radish (Raphanus sativus) and wheat (Triticum aestivum) as test plants. Both formic acid and acetic acid were diluted in water at 1, 3, and 5%, and deionized water was used as a control. Tween 20 was added to each of the solutions at a rate 0.04% for use as a surfactant. Solutions were applied to plants using a small handheld sprayer. Plants were evaluated at 24- and 72-hours after treatment for the % control.

Experiment [2] has as its system wheat (Triticum aestivum). Particulars: spray. How it is done: as §1
Experiment [3] deals with dicotyledonous radish plants (Raphanus sativas). Particulars: one day post-treatment. The source says: (§2) In order to determine whether formic acid could be used as a foliar herbicide it was applied as a foliar spray to the leaves of dicotyledonous radish plants (Raphanus sativas) and monocotyledonous wheat plants (Triticum aestivum). Solutions were applied to plants using a small handheld sprayer.
(§3) Formic acid and acetic acid solutions at three concentrations (1%, 3%, 5%) were applied and water was used as a check. A barrier was inserted between the rows of plants on either side of the row being treated to avoid drift of sprays into neighboring rows. Plants were evaluated at 24-hour and 72-hour intervals for the number of surviving plants and a percentage was derived from this number in comparison with the number of plants originally present in the row.

Experiment [4] deals with monocotyledonous wheat plants (Triticum aestivum). Particulars: foliar spray 5%; one day post-treatment.
Text: as §2, §3

In experiment [5] the test system is annual weeds tested including foxtail, lambsquarters, and pigweed. Particulars: found by the USDA; cited from earlier work.
The test system of experiment [6] is Canada thistle and other perennials. The note with it: cited from earlier work.

SMILES strings stand for the structures. Where two headings read alike, the source gives them in different places.

On to `CC(=O)O` [Acetic acid], for which the “% control of the dicot weeds (radish)” value in experiment [1] (1%) stood at 51%; in experiment [1] (3%), 71%. Besides, the “control of radish plants compared with formic acid (100%)” value in experiment [1] (5% dilution) was “comparable”. The “% control of wheat seedlings” value was 28% in experiment [2] (5%, 72-h); 5-14% in experiment [2] (lower concentrations (1 and 3%), after 72-h). The “foliage surviving, radish” value in experiment [3] (foliar spray 1%) is on record as 50%; in experiment [3] (foliar spray 3%), 30%. Also, the “killing of foliage of radish plants” value in experiment [3] (foliar spray 5%) was “killed all foliage”. This molecule displayed a wheat plants killed in experiment [4] of 30%. In addition, the “share of annual weeds tested against which effective” value in experiment [5] is given as 80%. Moreover, in experiment [6], the control of perennials entry is recorded as “does not control the root system”.

Values taken from US20070281857A1, “FORMIC ACID AS AN HERBICIDE” (MARRONE ORGANIC INNOVATIONS, priority 2006, published 2007).
